Results as given in patent US7547548B2, “Method for producing direct in vitro flowering and viable seed from cotyledon, radicle, and leaf explants, and plants produced therefrom” (University of Toledo, priority 2004, dated 2009).

Columns and labels:
[1] = test system: Leaf segments from a petunia; assay: In vitro flowering from leaf explant of petunia; format: cell-based; settings: MS basal medium, TDZ 0.1, 0.5, 1.0, 2.0 and 5.0 mg/L alone; 4 weeks
Protocol: Leaf segments from a petunia were sterilized using the sterilization procedures described above and placed on MS basal medium supplemented with different concentrations of TDZ (0.1, 0.5, 1.0, 2.0 and 5.0 mg/L) either alone or in combination with BAP (3.0 mg/L) or on a MS basal medium with no hormones. […] A large number of flowers were induced on MS basal medium. FIG. 7 is a photograph showing in vitro flowering in a petunia.

[2] = test system: cotyledonary explant; assay: Direct flower bud induction on cotyledon explants on MSB5 medium with growth regulators; format: cell-based, soybean
Protocol: Preferably before germination, the seeds are washed in running tap water with a drop of soap for 15 mins and sterilized with 70% ethyl alcohol for 1 min followed by a 10 minute treatment with 0.1% mercuric chloride and washed three times for 5 min intervals with sterile distilled water. Six seeds are germinated in each petriplate with MSB5 medium After germination on a MSB5 for a period of time, such as 3 days in the dark at 24±2° C., both the cotyledons are split and the radicle and embryo are removed. The isolated cotyledons from the seed are plated on cotyledon-flowering medium (which is another embodiment of the invention and is described in detail below). The cotyledon-flowering medium preferably comprises a substituted phenylurea cytokinin analog, such as TDZ and a cytokinin such as BAP.
If desired, the cotyledon may be transformed at this time with any suitable technique known in the art. Preferably the abaxial side of a cotyledon is placed in contact with a cotyledon-flowering medium. Cultures are incubated at 24±2° C. under a 16/8-hour […] photoperiod provided by cool-white fluorescent lights at a quantum flux density of 30 μmol s^−1m^−2.
Following a passage of time, typically within 3 weeks, flower bud initiation occurs on a cotyledon having been placed on a cotyledon-flowering medium. After about 3 weeks, cotyledons are transferred to MSB5 medium. The flower bud continues to grow on MSB5 medium to develop and produce viable seeds. During this time, cultures are incubated with necessary light-dark photoperiodic conditions to promote growth and to mimic natural growing conditions. Additionally, over time it may be necessary to subculture the explants with fresh MSB5 medium. See example 1 and FIGS, 1a-1d for direct viable-seed producing flower bud initiation on a soybean cotyledon.
Healthy soybean seeds are hand picked and washed with a few drops of soap (Linquinox, Fischer scientific, Pittsburgh, Pa.) for 10 minutes in running tap water. The seeds are then sterilized in 70% ethyl alcohol for 1 min and treated with 0.1% (w/v) mercuric chloride for 10 min. Sterilized seeds are again washed for three times at five minute intervals with sterilized distilled water, and plated six seed on each petri plate containing 20 ml of MSB5 medium. Three-day-old aseptic seedlings are used as the source material for explant preparation. Six isolated cotyledons are plated on each culture plate in such a way that the abaxial side in contact with the medium. MSB5 medium supplemented with different concentrations of TDZ (0.1, 0.5, 1.0, 2.0 and 5.0 mg/L) either alone, or in combination, with BAP (1.0-4.0 mg/L) are tested for flower induction. The media is augmented with 3% (w/v) sucrose and solidified with 0.56% agar (Phytotech Labs). The pH of the medium is adjusted to 5.8 with 0.1M NaOH or 0.1M HCl before autoclaving at 1.4 kg cm^−2 for 20 min at 121° C. The cultures are incubated in light-dark (16-8 hrs) photoperiodic conditions of cool-white-fluorescent light providing a quantum flux density of […] at 25±2° C. Explants with or without multiple flower buds are subcultured regularly at 20 days interval to fresh medium. Within 15 days of culture initiation, the bulging of cotyledons and induction of deep greenish unorganized structures from the proximal end is noticed.

[3] = test system: cotyledon; assay: Shoot, fertile flower and viable seed production from in vitro developed shoots from cotyledon; format: cell-based, soybean; settings: BAP 3.0 mg/L without TDZ
Protocol: In this method, the isolated cotyledons from the germinated seed are plated on a cotyledon-shoot-flowering medium (which is another embodiment of the invention and is described below). A cotyledon-shoot flowering medium preferably comprises a cytokinin or mixtures thereof, such as BAP or combinations of cytokinins and a substituted phenylurea cytokinin analog such as TDZ or mixtures thereof. If desired, the cotyledon may be transformed at this time with any suitable technique known in the art. Preferably the abaxial side of the cotyledon is placed in contact with a cotyledon-shoot-flowering medium. Cultures are incubated at 24×2° C. under a 16/8-hour dark photoperiod provided by cool-white fluorescent lights at a quantum flux density of 30 μmol s^−1m^−2. Following a passage of time, typically, within four to six weeks, shoot initiation occurs on a cotyledon having been placed on a cotyledon-shoot-flowering medium. The shoot continues to grow and develop a flower bud within two to four weeks after shoot initiation. The explant is maintained on a cotyledon-shoot flowering medium for about 15 days and then transferred to MSB5 medium. Healthy soybean seeds are hand picked and washed with a few drops of soap (Linquinox, Fischer scientific, Pittsburgh, Pa.) for 10 minutes in running tap water. […]

SMILES | flower bud induction [1] | flower induction and shoot induction ([2]; TDZ 5.0 mg/L) | flower production on cotyledonary explants ([2]; TDZ 1.0-2.0 mg/L without BAP) | number and frequency of flowers induced ([2]; TDZ below 1.0 mg/L) | appearance of induced flowers ([2]; medium containing only 1.0 to 2.0 mg/L TDZ) | frequency of shoots, fertile flowers and viable seeds [3] | developmental outcome produced by cotyledon explants ([2]; 3.0 mg/1 BAP)
O=C(Nc1ccccc1)Nc1cnns1 [TDZ, 1-phenyl-3-(1,2,3-thiadiazol-5-yl)urea] | Multiple flower buds were induced | neither flower induction nor shoot induction was noticed | produces flowers on cotyledonary explants | fewer number of flowers and less frequently | short, vitrified and abnormal |  | 
c1ccc(CNc2ncnc3nc[nH]c23)cc1 [BAP, 6-benzylamino purine] |  |  |  |  |  | high frequency of shoots with low frequency of fertile flowers and viable seeds | only shoots
